Common to all, as to assay type: biochemical
The target of assay [1] is MAGL (Mus musculus (Mouse), UniProt O35678). Put plainly: In vitro competitive activity-based protein profiling, mouse proteomes (brain membrane fraction or cell lysates). To be noted: mouse proteome, read-out: MAGL % inh. 1 μM (mouse). Here is the method: (§1) In Vitro Competitive Activity-Based Protein Profiling.
(§2) Proteomes (mouse brain membrane fraction or cell lysates for mouse assays; human prefrontal cortex or PC3 cell membrane fractions for human assays) (50 μL, 1.0 or 2.0 mg/mL total protein concentration) were preincubated with varying concentrations of inhibitors at 37° C. After 30 min, FP-Rh or JW912 or HT-01 (1.0 μL, 50 μM in DMSO) was added and the mixture was incubated for another 30 min at 37° C. Reactions were quenched with SDS loading buffer (15 μL-4×) and run on SDS-PAGE. Following gel imaging, serine hydrolase activity was determined by measuring fluorescent intensity of gel bands corresponding to MAGL and FAAH using ImageJ 1.43u software.

The target in assay [2] is FAAH (Mus musculus (Mouse), UniProt O08914). Described as above. Conditions: mouse proteome, read-out: FAAH % inh. 1 μM (mouse). Here is the method:
as §1, §2

Assay [3] addresses MAGL (Homo sapiens (Human), UniProt Q99685). Put plainly: In vitro competitive activity-based protein profiling, human proteomes (prefrontal cortex or PC3 cell membrane fractions). Conditions: human proteome; for inhibition at 1 µM: read-out: MAGL % inh. 1 μM (human). Here is the method:
as §1, §2

FAAH, sequence (O08914 whole entry): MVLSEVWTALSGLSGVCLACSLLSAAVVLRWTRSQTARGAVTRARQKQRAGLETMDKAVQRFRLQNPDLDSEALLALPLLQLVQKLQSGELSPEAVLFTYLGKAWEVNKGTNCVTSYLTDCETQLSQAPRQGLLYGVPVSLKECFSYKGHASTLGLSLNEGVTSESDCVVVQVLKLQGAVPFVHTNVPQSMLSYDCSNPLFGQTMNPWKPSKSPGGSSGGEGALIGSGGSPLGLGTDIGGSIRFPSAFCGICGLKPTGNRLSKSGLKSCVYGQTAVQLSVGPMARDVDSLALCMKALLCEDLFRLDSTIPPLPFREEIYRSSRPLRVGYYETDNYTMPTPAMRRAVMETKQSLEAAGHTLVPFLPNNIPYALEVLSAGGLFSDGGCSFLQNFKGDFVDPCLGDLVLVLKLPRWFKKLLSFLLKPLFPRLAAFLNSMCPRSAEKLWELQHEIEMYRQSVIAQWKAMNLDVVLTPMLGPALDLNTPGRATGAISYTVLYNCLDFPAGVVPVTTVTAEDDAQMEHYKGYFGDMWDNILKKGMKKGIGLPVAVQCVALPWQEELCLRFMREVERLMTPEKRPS
MAGL (Homo sapiens (Human), UniProt Q99685), sequence (Q99685 whole entry): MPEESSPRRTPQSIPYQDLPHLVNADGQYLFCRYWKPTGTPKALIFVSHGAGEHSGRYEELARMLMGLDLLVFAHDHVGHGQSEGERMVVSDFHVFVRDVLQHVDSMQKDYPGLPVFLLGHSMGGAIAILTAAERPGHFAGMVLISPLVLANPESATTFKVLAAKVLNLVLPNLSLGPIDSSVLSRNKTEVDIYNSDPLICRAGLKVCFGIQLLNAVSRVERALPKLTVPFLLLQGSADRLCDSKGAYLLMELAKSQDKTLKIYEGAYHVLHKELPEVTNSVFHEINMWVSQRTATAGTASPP
MAGL (Mus musculus (Mouse), UniProt O35678), sequence (O35678 whole entry): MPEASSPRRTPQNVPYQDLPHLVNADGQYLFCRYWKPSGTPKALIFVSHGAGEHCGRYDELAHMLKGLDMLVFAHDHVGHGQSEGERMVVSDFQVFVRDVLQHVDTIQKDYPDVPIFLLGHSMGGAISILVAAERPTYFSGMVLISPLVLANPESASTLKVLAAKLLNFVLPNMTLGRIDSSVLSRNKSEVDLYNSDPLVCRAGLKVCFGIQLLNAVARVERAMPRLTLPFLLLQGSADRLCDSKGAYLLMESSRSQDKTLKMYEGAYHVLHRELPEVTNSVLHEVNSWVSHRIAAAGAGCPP

Regarding `CC(=O)Nc1ccn(C(=O)N2C[C@H]3C[C@H](N(C)Cc4ccccc4Cl)C[C@H]3C2)n1` [Example 36, N-(1-((3aR,5s,6aS)-5-((2-Chlorobenzyl)(methyl)amino)octahydrocyclopenta[c]pyrrole-2-carbonyl)-1H-pyrazol-3-yl)acetamide], the inhibition at 1 µM in assay [1] and in assay [2] was more than 75% throughout.
As to `CC(=O)Nc1ccn(C(=O)N2C[C@H]3C[C@@H](N(C)Cc4ccccc4Cl)C[C@H]3C2)n1` [Example 37, N-(1-((3aR,5r,6aS)-5-((2-Chlorobenzyl)(methyl)amino)octahydrocyclopenta[c]pyrrole-2-carbonyl)-1H-pyrazol-3-yl)acetamide], the inhibition at 1 µM in assay [1] and in assay [2] was more than 75% throughout.
`CS(=O)(=O)Nc1ccn(C(=O)N2CC3CN(Cc4cccc(Oc5ccc(Cl)cc5)c4)CC3C2)n1` (stereo not shown) [Example 41, N-(1-(5-(3-(4-Chlorophenoxy)benzyl)octahydropyrrolo[3,4-c]pyrrole-2-carbonyl)-1H-pyrazol-3-yl)methanesulfonamide]: the figures for the inhibition at 1 µM in assay [1] and in assay [2] were 0 to 25% and more than 75%, respectively.
The like results for `CC(=O)Nc1ccn(C(=O)N2CC3CN(Cc4ccc(Oc5ccc(Cl)cc5)cc4)CC3C2)n1` (stereo not shown) [Example 44, N-(1-(5-(4-(4-Chlorophenoxy)benzyl)octahydropyrrolo[3,4-c]pyrrole-2-carbonyl)-1H-pyrazol-3-yl)acetamide] were, in that order, more than 75% and more than 75%.
A word on the IC50: it is the concentration at which inhibition is half-maximal. High values mean weaker potency in that assay, low ones greater potency in that assay. Regarding `CS(=O)(=O)Nc1ccn(C(=O)N2CCN(Cc3ccc(C(F)(F)F)c(N4CC5COCC5C4)c3)CC2)n1` (stereo not shown) [Example 181, N-(1-(4-(3-(Tetrahydro-1H-furo[3,4-c]pyrrol-5(3H)-yl)-4-(trifluoromethyl)benzyl)piperazine-1-carbonyl)-1H-pyrazol-3-yl)methanesulfonamide], the inhibition at 1 µM in assay [1] and in assay [3] was more than 75% each time. Also, the IC50 in assay [3] was less than 0.1 µM.
Turning to `CN(Cc1ccc(Cl)c(N2CCCC2)c1)C1(C)CCN(C(=O)n2ccc(NS(C)(=O)=O)n2)CC1` [Example 183, N-(1-(4-((4-Chloro-3-(pyrrolidin-1-yl)benzyl)(methyl)amino)-4-methylpiperidine-1-carbonyl)-1H-pyrazol-3-yl)methanesulfonamide], the inhibition at 1 µM in assay [1] and in assay [3] was more than 75% throughout.
Turning to `CN(Cc1cc(Cl)ccc1C(F)(F)F)CC1CCN(C(=O)n2ccc(NS(C)(=O)=O)n2)CC1` [Example 184, N-(1-(4-(((5-Chloro-2-(trifluoromethyl)benzyl)(methyl)amino)methyl)piperidine-1-carbonyl)-1H-pyrazol-3-yl)methanesulfonamide], the inhibition at 1 µM in assay [1] is more than 75%. Moreover, in assay [3], the inhibition at 1 µM was more than 75% and the IC50 was less than 0.1 µM.
With `C[C@H]1CN(C(=O)n2ccc(NS(C)(=O)=O)n2)CCN1Cc1ccc(C(F)(F)F)c(N2CCC(F)CC2)c1` [Example 187, (S)-N-(1-(4-(3-(4-Fluoropiperidin-1-yl)-4-(trifluoromethyl)benzyl)-3-methylpiperazine-1-carbonyl)-1H-pyrazol-3-yl)methanesulfonamide], in assay [1], the inhibition at 1 µM was more than 75%. In addition, in assay [3], the inhibition at 1 µM was more than 75% and the IC50 was less than 0.1 µM.
`CC(=O)Nc1ccn(C(=O)N2CC3CN(Cc4cc(C(F)(F)F)cc(C5(C(=O)O)CCCC5)c4)CC3C2)n1` (stereo not shown) [Example 191, 1-(3-((5-(3-Acetamido-1H-pyrazole-1-carbonyl)hexahydropyrrolo[3,4-c]pyrrol-2(1H)-yl)methyl)-5-(trifluoromethyl)phenyl)cyclopentane-1-carboxylic acid]: the inhibition at 1 µM in assay [1] and in assay [3] was more than 75% throughout.
Consider `C[C@H]1CN(C(=O)n2ccc(NS(C)(=O)=O)n2)CCN1Cc1ccc(C(F)(F)F)c(N2CC[C@H](F)C2)c1` [Example 192, N-(1-((S)-4-(3-((S)-3-Fluoropyrrolidin-1-yl)-4-(trifluoromethyl)benzyl)-3-methylpiperazine-1-carbonyl)-1H-pyrazol-3-yl)methanesulfonamide], for which the inhibition at 1 µM in assay [1] and in assay [3] was more than 75% each time.
Turning to `CC(=O)Nc1ccn(C(=O)N2CCC(N(C)Cc3cc(C(F)(F)F)cc(C4(C(=O)O)CCCC4)c3)CC2)n1` [Example 193, 1-(3-(((1-(3-Acetamido-1H-pyrazole-1-carbonyl)piperidin-4-yl)(methyl)amino)methyl)-5-(trifluoromethyl)phenyl)cyclopentane-1-carboxylic acid], the inhibition at 1 µM in assay [1] and in assay [3] was more than 75% each time.
As to `C[C@H]1C[C@@H](N(C)Cc2ccc(Cl)c(N3CC4COCC4C3)c2)CCN1C(=O)n1ccc(NS(C)(=O)=O)n1` (stereo partly drawn) [Example 194, N-(1-((2S,4S)-4-((4-chloro-3-(Tetrahydro-1H-furo[3,4-c]pyrrol-5(3H)-yl)benzyl)(methyl)amino)-2-methylpiperidine-1-carbonyl)-1H-pyrazol-3-yl)methanesulfonamide], in assay [1], the inhibition at 1 µM was in the range of 0 to 25%. The inhibition at 10 µM in assay [3] (10 μM, read-out: MAGL % inh. (human) @ 10 μM) lay in the range of 50 to 75%.
Regarding `CS(=O)(=O)Nc1ccn(C(=O)N2CCC3(CCCN3Cc3ccc(Cl)c(N4CCCC4)c3)CC2)n1` [Example 195, N-(1-(1-(4-Chloro-3-(pyrrolidin-1-yl)benzyl)-1,8-diazaspiro[4.5]decane-8-carbonyl)-1H-pyrazol-3-yl)methanesulfonamide], the inhibition at 1 µM in assay [1] and in assay [3] was more than 75% each time.
For the compound `CN(Cc1ccc(Cl)cc1N1CCC(F)CC1)C1(C)CCN(C(=O)n2ccc(NS(C)(=O)=O)n2)CC1` [Example 196, N-(1-(4-((4-Chloro-2-(4-fluoropiperidin-1-yl)benzyl)(methyl)amino)-4-methylpiperidine-1-carbonyl)-1H-pyrazol-3-yl)methanesulfonamide], the inhibition at 1 µM in assay [1] and in assay [3] was more than 75% in each case.
Turning to `CN(Cc1ccc(Cl)cc1N1CCOCC1)C1(C)CCN(C(=O)n2ccc(NS(C)(=O)=O)n2)CC1` [Example 198, N-(1-(4-((4-Chloro-2-morpholinobenzyl)(methyl)amino)-4-methylpiperidine-1-carbonyl)-1H-pyrazol-3-yl)methanesulfonamide], the values for the inhibition at 1 µM in assay [1] and in assay [3] were 50 to 75% and more than 75%, respectively.
The corresponding values for `C[C@@H]1CCCN1c1cc(CN2CCN(C(=O)n3ccc(NS(C)(=O)=O)n3)C[C@@H]2C)ccc1Cl` [Example 199, N-(1-((S)-4-(4-Chloro-3-((R)-2-methylpyrrolidin-1-yl)benzyl)-3-methylpiperazine-1-carbonyl)-1H-pyrazol-3-yl)methanesulfonamide] are more than 75% and more than 75%.
Turning to `C[C@@H]1CN(C(=O)n2ccc(NS(C)(=O)=O)n2)CCN1Cc1ccc(Cl)c(N2CCC[C@H]2C)c1` [Example 200, N-(1-((R)-4-(4-Chloro-3-((R)-2-methylpyrrolidin-1-yl)benzyl)-3-methylpiperazine-1-carbonyl)-1H-pyrazol-3-yl)methanesulfonamide], the inhibition at 1 µM in assay [1] and in assay [3] was more than 75% throughout.
Take `C[C@@H]1CN(C(=O)n2ccc(NS(C)(=O)=O)n2)CCN1Cc1ccc(Cl)c(N2CCC(F)(F)CC2)c1` [Example 201, (R)-N-(1-(4-(4-Chloro-3-(4,4-difluoropiperidin-1-yl)benzyl)-3-methylpiperazine-1-carbonyl)-1H-pyrazol-3-yl)methanesulfonamide]: the inhibition at 1 µM in assay [1] and in assay [3] was more than 75% in each case.
Turning to `C[C@@H]1CN(C(=O)n2ccc(NS(C)(=O)=O)n2)CCN1Cc1ccc(Cl)c(N2CCC(C(F)(F)F)CC2)c1` [Example 202, (R)-N-(1-(4-(4-Chloro-3-(4-(trifluoromethyl)piperidin-1-yl)benzyl)-3-methylpiperazine-1-carbonyl)-1H-pyrazol-3-yl)methanesulfonamide], the inhibition at 1 µM in assay [1] and in assay [3] was more than 75% in each case.
For `CS(=O)(=O)Nc1ccn(C(=O)N2CCC(OCc3ccc(Cl)c(N4CCC(F)CC4)c3)CC2)n1` [Example 209, N-(1-(4-((4-Chloro-3-(4-fluoropiperidin-1-yl)benzyl)oxy)piperidine-1-carbonyl)-1H-pyrazol-3-yl)methanesulfonamide], the inhibition at 1 µM in assay [1] and in assay [3] was more than 75% throughout.
Regarding `CS(=O)(=O)Nc1ccn(C(=O)N2CC[C@H](Oc3ccc(C(F)(F)F)c(N4CCC(F)CC4)c3)[C@@H](F)C2)n1` [Example 210, N-(1-((3S,4S)-3-Fluoro-4-(3-(4-fluoropiperidin-1-yl)-4-(trifluoromethyl)phenoxy)piperidine-1-carbonyl)-1H-pyrazol-3-yl)methanesulfonamide], the inhibition at 1 µM in assay [1] and in assay [3] was more than 75% throughout.
As for `C[C@H]1CN(C(=O)n2ccc(NS(C)(=O)=O)n2)CCN1Cc1cc(N2CCC(F)CC2)c(Cl)cn1` [Example 223, (S)-N-(1-(4-((5-Chloro-4-(4-fluoro-piperidin-1-yl)pyridin-2-yl)methyl)-3-methyl-piperazine-1-carbonyl)-1H-pyrazol-3-yl)methane-sulfonamide], the inhibition at 1 µM in assay [1] and in assay [3] was more than 75% each time.
As to `C[C@@H]1CN(C(=O)n2ccc(NS(C)(=O)=O)n2)CCN1Cc1ccc(Cl)c(N2CCCC2)c1` [Example 224, (R)-N-(1-(4-(4-Chloro-3-(pyrrolidin-1-yl)benzyl)-3-methyl-piperazine-1-carbonyl)-1H-pyrazol-3-yl)methane-sulfonamide], the inhibition at 1 µM in assay [1] and in assay [3] was more than 75% each time.

The record behind these values is patent publication US11149037B2, “Pyrazole MAGL inhibitors” (H. Lundbeck A/S, priority 2017, dated 2021).
